# Patent publication US11396511B2, “Substituted 9,13b-dihydro-1H-dibenzo[c,f]imidazo[1,5-a]azepin-3-ylbenzamides as anti-inflammatory and analgesic agents” (FRONTBIO CO., LTD., priority 2017, dated 2022)
# Tests used:
# [1] = tested on: Raw 264.7 cells; assay: Measurement of NO production in LPS-stimulated Raw 264.7 cells; type: cell-based; conditions: for inhibition at 12.5 µM / inhibition at 25 µM / inhibition at 50 µM / inhibition at 100 µM: Mus musculus, RAW264.7, LPS 100 ng/ml, 24 h; for reduction of NO production (in words): together with LPS (100 ng/ml)
# Protocol: Raw 264.7 cells were plated in a 96-well cell culture plate (50,000 cells/well). Lipopolysaccharide (LPS) was diluted to 100 ng/ml and the dilution was added to the cell culture media The LPS stimulus was applied for 24 h to induce the activity of the Raw 264.7 cells and supernatants (50 μl each) obtained from the 96-well cell culture plate were plated in a new plate. 50 μl of a sulfanilamide solution was added and the reaction was allowed to proceed for 10 min. 50 μl of a NED solution was added and the reaction was allowed to proceed for 10 min. The amount of NO produced from the cells in the cell culture media was determined by measuring the absorbance at a wavelength of 540 nm.
# [2] = tested on: Raw 264.7 cells; assay: Cell viability measurement (MTS); type: cell-based
# Protocol: Raw 264.7 cells were plated in a 96-well cell culture plate (50,000 cells/well). The cell culture media were removed from the 96-well cell culture plate. 100 μl of MTS reagent (CellTiter 96 AQueous One Solution Cell Proliferation Assay, Promega) was added to each well and the reaction was allowed to proceed at 37° C. for 20 min. After the reaction was finished, the cell viability were determined by measuring the absorbance at a wavelength of 490 nm.
# [3] = tested on: Akt; assay: Western blot analysis, Akt signaling by LPS signals; type: cell-based
# Protocol: Cells were harvested, washed with 1×PBS, and suspended by adding a mixture of a protein extraction buffer (150 mM NaCl, 50 mM Tris-HCl pH 7.4, 5 mM EDTA pH 8.0, 1% NP-40) and a protease inhibitor cocktail. Then, the reaction was allowed to proceed in ice for 20 min, sonicated, and centrifuged (13,000 rpm, 30 min). The concentration of proteins in the supernatant was quantified by a BCA protein assay and proteins were separated on the basis of size on an SDS-PAGE gel. Thereafter, proteins were transferred to a PVDF membrane and blocked with skim milk for 1 h. Primary and secondary antibodies were coupled and photosensitized with ECL solution to determine the expression levels of desired proteins.
# [4] = tested on: mice; assay: Writhing test (1% acetic acid intraperitoneally); type: in vivo; conditions: for numbers of stretching and writhing movements: 30 min pretreatment
# Protocol: In accordance with the most common method for measuring the analgesic efficacies of the test substances in the peripheral nerve based on abdominal contraction responses as indices, 1% acetic acid was administered intraperitoneally to mice to induce damage or pain of the abdominal peripheral vessels. After acetic acid administration, the behavioral profiles of the mice were observed and the numbers of stretching and writhing movements of the mice were counted to determine the analgesic efficacies of the test substances.
# 30 min after pretreatment with the compound 3 (E-S) at concentrations of 10, 20, 40, and 80 mg/kg, writhing test was conducted to assess the analgesic efficacy of the compound 3. As a result, the analgesic efficacy of the compound 3 was concentration-dependent (FIG. 4a and Table 4). The analgesic efficacy of the compound 4 (E-A) was assessed in the same manner as that of the compound 3.
# [5] = tested on: mice; assay: Hot-plate test; type: in vivo; conditions: for response time to the thermal stimulus (hot-plate): 30 min pretreatment, in s (unit assumed); for analgesic efficacy in hot-plate test (in words): 10, 20, 40, 80 mg/kg
# Protocol: Hot-plate test was conducted using an electric heater to measure the analgesic activity of the test substances on the acute thermal stimulus. Experimental animals were injected with the test drugs and a vehicle (control) and were sequentially placed on an electric heater (hot-plate). The response time to the thermal stimulus ([…]) was defined as the time until the experimental animal licked their paws. Male mice weighing 22-25 g, aged 4-5 weeks, were used as the test animals (10 per group).
# 30 min after pretreatment with the compound 3 (E-S) at concentrations of 10, 20, 40, and 80 mg/kg, hot-plate test was conducted to assess the analgesic efficacy of the compound 3. […] The analgesic efficacy of the compound 4 (E-A) was assessed in the same manner as that of the compound 3.
# [6] = tested on: monosodium urate (MSU) models; assay: Von-frey test in monosodium urate models; type: in vivo, mice; design: threshold values (Von-frey test): unit not given here; conditions: monosodium urate model; for analgesic efficacy, Von-frey test (in words): oral 10, 20, 40, 80 mg/kg; for concentration of highest analgesic efficacy, Von-frey test: oral 10, 20, 40, 80 mg/kg tested
# Protocol: 100 mg of uric acid and 60 μl of 10 N NaOH were dissolved in 20 ml of distilled water and the pH of the solution was adjusted to 7.2-7.4 with HCl (1 N) at 60° C. After stirring at room temperature for 5 days, the solution was plated in a 1 ml tube and stored for 4 days. The solution was vortexed overnight until needle-like crystals appeared. The solution was washed twice with 100% ethanol and centrifuged at 3000 rpm for 2 min. Finally, the MSU crystals were collected and dissolved in […] of endotoxin-free PBS. The resulting sample were injected intra-articularly into mice (MSU 300 μg/10 μl each) under anesthesia. At 24 h post-injection, pain or ankle swelling were measured to determine the analgesic efficacy of a test substance.
# After damage to the sciatic nerve, allodynia induced by the mechanical stimulus was measured. Mice were housed in acrylic chambers on a steel mesh floor and acclimated for ≥60 min before testing. Continuous responses were evaluated using Von-frey filaments by the up-down method. The filaments were brought into vertical contact with the affected left soles and the contact was maintained for 5-6 sec. The response was considered to be positive when the mouse rapidly avoided the stimulus, startled or licked its sole. The Von-frey filaments were first used to stimulate the mice.
# The analgesic efficacies of the test substances were evaluated in monosodium urate models. To this end, after oral administration of each test substance at concentrations of 10, 20, 40, and 80 mg/kg, threshold values were measured at different periods of time through Von-frey test.
smiles,measurement,setting,value
"O=C(NC1=NCC2c3ccccc3Cc3ccccc3N12)c1ccccc1O (centres unmarked) [E-S, N-(9,13b-dihydro-1H-dibenzo[c,f]imidazo[1,5-a]azepin-3-yl)-2-hydroxybenzamide]",inhibition at 12.5 µM,[1],0%
same,inhibition at 25 µM,[1],9.47%
same,inhibition at 50 µM,[1],30.8%
same,inhibition at 100 µM,[1],40.8%
same,reduction of NO production (in words),[1],concentration-dependent reduction in NO production
same,"cell toxicity (cell viability, MTS)",[2],no cell toxicities were observed
same,phosphorylation of Akt by LPS,[3]; 100 uM,observed to decrease
same,numbers of stretching and writhing movements,[4]; 10 mg/kg,33.75
same,numbers of stretching and writhing movements,[4]; 20 mg/kg,29.75
same,numbers of stretching and writhing movements,[4]; 40 mg/kg,23.75
same,numbers of stretching and writhing movements,[4]; 80 mg/kg,12.75
same,analgesic efficacy in writhing test (in words),"[4]; 10, 20, 40, 80 mg/kg",concentration-dependent
same,response time to the thermal stimulus (hot-plate),[5]; 10 mg/kg,8.64
same,response time to the thermal stimulus (hot-plate),[5]; 20 mg/kg,13.34
same,response time to the thermal stimulus (hot-plate),[5]; 40 mg/kg,15.52
same,response time to the thermal stimulus (hot-plate),[5]; 80 mg/kg,19.30
same,analgesic efficacy in hot-plate test (in words),[5],significant at 40 and 80 mg/kg
same,threshold values (Von-frey test),"[6]; oral 10 mg/kg, 1 h, 10 mg/kg",0.173
same,threshold values (Von-frey test),"[6]; oral 10 mg/kg, 2 h, 10 mg/kg",0.211
same,threshold values (Von-frey test),"[6]; oral 10 mg/kg, 3 h, 10 mg/kg",0.148
same,threshold values (Von-frey test),"[6]; oral 10 mg/kg, 4 h, 10 mg/kg",0.166
same,threshold values (Von-frey test),"[6]; oral 10 mg/kg, 5 h, 10 mg/kg",0.107
same,threshold values (Von-frey test),"[6]; oral 10 mg/kg, basal",0.127
same,threshold values (Von-frey test),"[6]; oral 20 mg/kg, 1 h, 20 mg/kg",0.194
same,threshold values (Von-frey test),"[6]; oral 20 mg/kg, 2 h, 20 mg/kg",0.163
same,threshold values (Von-frey test),"[6]; oral 20 mg/kg, 4 h, 20 mg/kg",0.207
same,threshold values (Von-frey test),"[6]; oral 20 mg/kg, 5 h, 20 mg/kg",0.194
same,threshold values (Von-frey test),"[6]; oral 20 mg/kg, basal",0.127
same,threshold values (Von-frey test),"[6]; oral 40 mg/kg, 1 h, 40 mg/kg",0.183
same,threshold values (Von-frey test),"[6]; oral 40 mg/kg, 2 h, 40 mg/kg",0.214
same,threshold values (Von-frey test),"[6]; oral 40 mg/kg, 3 h, 40 mg/kg",0.278
same,threshold values (Von-frey test),"[6]; oral 40 mg/kg, 4 h, 40 mg/kg",0.257
same,threshold values (Von-frey test),"[6]; oral 40 mg/kg, 5 h, 40 mg/kg",0.152
same,threshold values (Von-frey test),"[6]; oral 40 mg/kg, basal",0.127
same,threshold values (Von-frey test),"[6]; oral 80 mg/kg, 1 h, 80 mg/kg",0.239
same,threshold values (Von-frey test),"[6]; oral 80 mg/kg, 2 h, 80 mg/kg",0.439
same,threshold values (Von-frey test),"[6]; oral 80 mg/kg, 3 h, 80 mg/kg",0.301
same,threshold values (Von-frey test),"[6]; oral 80 mg/kg, 4 h, 80 mg/kg",0.267
same,threshold values (Von-frey test),"[6]; oral 80 mg/kg, 5 h, 80 mg/kg",0.155
same,threshold values (Von-frey test),"[6]; oral 80 mg/kg, basal",0.138
same,"analgesic efficacy, Von-frey test (in words)",[6],concentration-dependent until 2 h after treatment
same,"concentration of highest analgesic efficacy, Von-frey test",[6],80 mg/kg
"CC(=O)Oc1ccccc1C(=O)NC1=NCC2c3ccccc3Cc3ccccc3N12 (centres unmarked) [E-A, 2-((9,13b-dihydro-1H-dibenzo[c,f]imidazo[1,5-a]azepin-3-yl)carbamoyl)phenyl acetate]",inhibition at 12.5 µM,[1],0%
same,inhibition at 25 µM,[1],17.1%
same,inhibition at 50 µM,[1],40.1%
same,inhibition at 100 µM,[1],52.4%
same,reduction of NO production (in words),[1],concentration-dependent reduction in NO production
same,"cell toxicity (cell viability, MTS)",[2],no cell toxicities were observed
same,effect on Akt signaling by LPS signals,[3],found to affect both MAPK signaling and Akt signaling by LPS signals and reduce the activity of proteins
same,numbers of stretching and writhing movements,[4]; 10 mg/kg,8.25
same,numbers of stretching and writhing movements,[4]; 20 mg/kg,13.75
same,numbers of stretching and writhing movements,[4]; 40 mg/kg,11.25
same,numbers of stretching and writhing movements,[4]; 80 mg/kg,12.25
same,concentration of best analgesic efficacy in writhing test,"[4]; 10, 20, 40, 80 mg/kg tested",10 mg/kg
same,response time to the thermal stimulus (hot-plate),[5]; 10 mg/kg,9.58
same,response time to the thermal stimulus (hot-plate),[5]; 20 mg/kg,14.98
same,response time to the thermal stimulus (hot-plate),[5]; 40 mg/kg,17.42
same,response time to the thermal stimulus (hot-plate),[5]; 80 mg/kg,18.30
same,analgesic efficacy in hot-plate test (in words),[5],observed in the 2nd phase
same,threshold values (Von-frey test),"[6]; oral 10 mg/kg, basal",0.186
same,threshold values (Von-frey test),"[6]; oral 20 mg/kg, basal",0.208
same,threshold values (Von-frey test),"[6]; oral 40 mg/kg, basal",0.190
same,threshold values (Von-frey test),"[6]; oral 80 mg/kg, basal",0.186
same,"analgesic efficacy, Von-frey test (in words)",[6],concentration-dependent until 2-3 h after treatment
same,"concentration of highest analgesic efficacy, Von-frey test",[6],80 mg/kg
